Test results reported in patent publication US20090270373A1, “TREATMENT OF DOWN SYNDROM WITH BENZODIAZEPINE RECEPTOR ANTAGONISTS” (Cypress Biosciences, Inc., priority 2008, published 2009).

How the values were obtained:
Ts65Dn mice [1] = settings: cited from earlier work; for improvement in cognition: 4 week crossover study
Ts65Dn mice [2] = assay type: in vivo, mouse; settings: 4-week crossover, flumazenil or bretazenil 1.0 mg/kg i.p. for 2 weeks, bilobalide 5.0 mg/kg i.p. throughout
Description: (§1) A 4-week longitudinal crossover study is carried out following the method outlined by Fernandez et al., supra. Wild-type and Ts65Dn mice (3-4 months of age) are randomly assigned to groups receiving daily i.p. injections of saline or flumazenil (1.0 mg/kg), and are submitted to four weekly repetitions of object recognition testing, in which the animals are serially presented with four different object sets. At the 2-week midpoint of the experimental period, wild-type and Ts65Dn mice that have been receiving saline are randomly segregated into groups that either continue to receive daily saline injections or begin to receive daily injections of flumazenil. Conversely, wild-type and Ts65Dn mice that have been chronically administered flumazenil in the first 2 weeks of testing are switched onto a saline regimen. Alongside saline and flumazenil, bilobalide (i.p. 5.0 mg/kg) may be evaluated as a positive control. Bilobalide is a picrotoxin-like compound that may safely be administered for the whole 4-week experiment.
(§2) Flumazenil may also be tested for its effects on declarative memory in the novel object recognition test and in a modified spontaneous alternation task. Wild-type and Ts65Dn mice may be administered flumazenil (3 mg/kg in milk via voluntary oral feeding or 1 mg/kg i.p.). The wild-type and Ts65Dn mice are administered from 5 to 30 doses of milk or milk-flumazenil (or saline or flumazenil solution i.p.). The mice are then subjected to two repetitions of novel object recognition testing or three daily T-maze sessions at the tail end of the treatment regimen. […] Comparison of treated and untreated Ts65Dn mice will provide controls for any possible arm bias in the spontaneous alternation task.
as §1, with “bretazenil” for “flumazenil”, “bretazenil.” for “flumazenil.”, “bretazenil,” for “flumazenil,”
as §2, with “Bretazenil may” for “Flumazenil may”, “administered bretazenil” for “administered flumazenil”

Ts65Dn mice [3] = assay: Long-term potentiation (LTP) in the dentate gyrus of Ts65Dn mice (paper Examples 1 and 2); assay type: in vivo, mouse; settings: about 1 month after cessation of drug treatment
From the text: Since the ability of animals to learn and remember is thought to be encoded at the synaptic level, and involves the ability of synapses to undergo long-term changes in synapse strength, long-term potentiation (LTP) in the dentate gyrus may be evaluated.

Down Syndrome patients = assay: Cognition in Down Syndrome patients, double-blind cross-over (Example 3); assay type: in vivo, human; settings: 5 and 20 mg
Description: Fifteen adult or adolescent Down Syndrome patients experiencing at least some level of cognitive impairment participate in a double-blind, cross-over comparison of […]. The drugs administered are flumazenil (5 and 20 mg), bretazenil (5 and 20 mg) or placebo. Subjects are randomly assigned to treatments according to a Williams Square design (Higgitt, supra (citing Williams, “Experimental designs balanced for the estimation of residual effects of treatments, Aust. J. Sci. Res. 2:149-168 (1949))). Each subject receives a different sequence of four treatments balanced for carry-over effects and separated by at least 1 week of wash-out period. […]
Psychophysiological indices to be measured include: EEG, skin conductance, finger tremor, critical flicker fusion threshold, blood pressure and pulse rate, key tapping rate, and reaction time. […]
EEG and evoked responses: These are recorded during the same EEG recording procedure. […] In addition, the four values are summed and each is expressed as a percentage of the total.
The averaged evoked responses are obtained from the 500 ms epoch of the EEG following each of the 32 click stimuli. […] The latency at each peak and peak-to-peak amplitudes are computed and recorded automatically. […]
Skin conductance, blood pressure and pulse rate can be measured by the method of Higgitt et al., supra. […]

WT mice = assay: Novel object recognition assay (Discrimination Index) in WT mice; assay type: in vivo, mouse
Description: (§3) Following baseline determinations and group assignments, WT and Ts65Dn mice received intraperitoneal (i.p.) injections once/day (08:00) for the two-week duration of the drug treatment regimen (FIG. 1). Drugs were dissolved in physiological saline. Two drops of Tween 80 were used to facilitate solution formation for flumazenil. Picrotoxin was initially made up at 50× concentration in 20% ethanol and then diluted down to a […] solution with 0.4% ETOH in saline. Doses of drugs were based on previous behavioral research in mice (1 mg/kg for PTX and 10 mg/kg for flumazenil). Injections were given in a volume of 10 ml/kg. A vehicle control was run along side the treatment groups (0.4% ETOH in saline).
(§4) FIG. 1 graphically depicts the protocol. After habituation to the animal facility, mice were tested for baseline behaviors in the open-field locomotor assay (LMA)(30 min session) and the novel object recognition assay. Primary experimental groups were divided by genotype (Ts65Dn mice and wild-type control littermates). These two groups were further divided into drug treatments (vehicle, PTX and flumazenil) with a targeted n-size of 8 mice/group (24 WT and 24 Ts65Dn mice total). The group assignments were made in a semi-random process due to constraints in animal availability (staggered shipping) and choice of initial treatment groups (e-mail documentation between Bilsky laboratory and Cypress Bioscience on file). Daily morning injections began on Day 1 and went through the morning of Day 14. On Days 7/8 and 14/15 (13:00) mice were tested in the behavioral assay. Mice were kept for an additional two weeks and re-tested on Days 21/22 and 28/29 to assess the duration of the drug treatment effect.
(§5) The novel object recognition task is based on the innate tendency of rodents to differentially explore novel objects over familiar ones. The task is well validated for evaluating rodent memory and the effects of drug treatments on learning/memory performance.
(§6) Mice were trained and tested once per week, each experimental session separated by a one-week interval. Mice were submitted to daily handling sessions, and given an opportunity to habituate to an open field arena (48 cm×48 cm wide×25 cm), where they were exposed to two different objects (complex protocol), during a 5-minute training session. Objects were made from various non-porous materials that differ in shape and color. Mice were unable to climb onto the objects and the objects were generally consistent in height and volume, and were roughly symmetrical on a horizontal plane. Objects were positioned in two corners of the apparatus. To control for odor cues, the open field arena and the objects are thoroughly cleaned with 90% ethanol, dried, and ventilated for a few minutes between mice.
(§7) A 5-minute testing session was conducted 24 h after training. Here, the mice were presented with the object they had explored the previous day, and a new item (the objects being alternatively positioned in one corner or another in a balanced fashion within a given week, and from one week to another). […]

Ts65Dn mice [4] = assay: Novel object recognition assay (Discrimination Index) in Ts65Dn mice, model of Down syndrome; assay type: in vivo, mouse
Description: as §3, §4, §5, §6, §7

WT and Ts65Dn mice = assay: Open-field locomotor assay (LMA), 30 min session; assay type: in vivo, mouse
Description: as §3, §4
General levels of arousal, locomotor activity and anxiety were assessed using an automated open-field activity monitoring system (Coulbourn Instruments with TruScan software). The open field test that were run were fully automated assays that quantified many different aspects and patterns of movement, including total distance traveled, time spent moving, rearing, and various stereotypic patterns of activity. The software calculates the time spent in the middle portions of the open field versus the outer zones alongside the outside walls. These variables can be used as one measure of general anxiety levels.
Mice were placed into an open field (26 cm×26 cm) in a brightly lit room. Two sensor rings (x-y plane and a vertical z plane) generate an array of infrared beams that surround the chamber. The pattern of beam breaks was recorded and the data fed into a personal computer. The TruScan software interpreted the beam breaks to calculate the movement variables and patterns of activity, with a temporal resolution of 100 msec. A 30 minutes session was used for assessment of the mice on Day 0 (Baseline) and then on Days 1, 7, 14, 21 and 28. Data were exported into an Excel spreadsheet, graphed and analyzed using parametric and non-parametric statistics.

[5] = Week 1 of drug therapy, PTX 1 mg/kg, flumazenil 10 mg/kg i.p.

CC(C)(C)[C@]1(O)CC2OC(=O)CC23C(=O)OC2OC(=O)[C@H](O)C231 (stereo partly shown) [bilobalide]
improvement in cognition (Ts65Dn mice [1]): statistically significant improvement | object recognition performance (Ts65Dn mice [2]): normalized object recognition performance

CC(C)(C)OC(=O)c1ncn2c1[C@@H]1CCCN1C(=O)c1c(Br)cccc1-2 [bretazenil, tert-butyl-(S)-8-bromo-11,12,13,13a-tetrahydro-9-oxo-9H-imidazo[1,5-a]pyrrolo[2,1-c][1,4]benzodiazepine-1-carboxylate]
LTP in the dentate gyrus (Ts65Dn mice [3]): Normalized LTP | indicators of cognition as compared to placebo (Down Syndrome patients): improvement in one or more indicators of cognition | object recognition performance (Ts65Dn mice [2]): normalized object recognition performance

picrotoxin [PTX]
improvement in cognition (Ts65Dn mice [1]): statistically significant improvement | rescue of cognition (Ts65Dn mice [1]; Ts65Dn mice, two-week dosing regimen of 1.0 mg/kg i.p.): clear benefit | Discrimination Index (DI) (WT mice; [5]): ~30 | Discrimination Index (DI) (WT mice; Week 2 of drug therapy, versus vehicle): no differences | Discrimination Index (DI) (WT mice; Week 4 (2 weeks post dosing)): positive DI | Discrimination Index (DI) (Ts65Dn mice [4]; [5]): positive effects | Discrimination Index (DI) (Ts65Dn mice [4]; Week 2 of drug therapy): positive effects | LMA center distance traveled (WT and Ts65Dn mice; 7 and 14 days post dosing): mild rebound effect | LMA margin vs. center time (WT and Ts65Dn mice; Day 1): trend for decreased center time | LMA margin vs. center time (WT and Ts65Dn mice; Day 7): small decrease in time spent in the center zone | LMA margin vs. center time (WT and Ts65Dn mice; Day 21 (washout period)): increased time spent in center | LMA margin vs. center time (WT and Ts65Dn mice; Day 28 (washout period)): trend for increased time spent in the center zone | LMA vertical rearing (WT and Ts65Dn mice; WT and Ts65Dn mice, PTX during drug administration phases, flumazenil over the 4 week testing regimen): dropping significantly | LMA marginal distance traveled (WT and Ts65Dn mice; WT and Ts65Dn mice, across sessions, PTX 1 mg/kg, flumazenil 10 mg/kg i.p.): decreased distance traveled | LMA total distance traveled (WT and Ts65Dn mice; dosing phase (Days 1, 7 and 14), PTX 1 mg/kg i.p.): modest decrease | LMA center distance traveled (WT and Ts65Dn mice; drug administration phase (Days 1, 7 and 14), PTX 1 mg/kg, flumazenil 10 mg/kg i.p.): decreased levels of activity | time after last dosing until LMA effects were gone (WT and Ts65Dn mice; total distance traveled, PTX 1 mg/kg i.p.): ≤ 7 days
